{"source": "the kinase profiling compilation of Christmann-Franck et al. (2016)", "test_in_all_cases": "KINOMEscan competition binding", "conditions_in_all_cases": "compound 10.0 µM", "key": {"MLTK (human)": {"molecular_target": "MLTK (human) (UniProt Q9NYL2)", "sequence (Q9NYL2 whole entry, looked up)": "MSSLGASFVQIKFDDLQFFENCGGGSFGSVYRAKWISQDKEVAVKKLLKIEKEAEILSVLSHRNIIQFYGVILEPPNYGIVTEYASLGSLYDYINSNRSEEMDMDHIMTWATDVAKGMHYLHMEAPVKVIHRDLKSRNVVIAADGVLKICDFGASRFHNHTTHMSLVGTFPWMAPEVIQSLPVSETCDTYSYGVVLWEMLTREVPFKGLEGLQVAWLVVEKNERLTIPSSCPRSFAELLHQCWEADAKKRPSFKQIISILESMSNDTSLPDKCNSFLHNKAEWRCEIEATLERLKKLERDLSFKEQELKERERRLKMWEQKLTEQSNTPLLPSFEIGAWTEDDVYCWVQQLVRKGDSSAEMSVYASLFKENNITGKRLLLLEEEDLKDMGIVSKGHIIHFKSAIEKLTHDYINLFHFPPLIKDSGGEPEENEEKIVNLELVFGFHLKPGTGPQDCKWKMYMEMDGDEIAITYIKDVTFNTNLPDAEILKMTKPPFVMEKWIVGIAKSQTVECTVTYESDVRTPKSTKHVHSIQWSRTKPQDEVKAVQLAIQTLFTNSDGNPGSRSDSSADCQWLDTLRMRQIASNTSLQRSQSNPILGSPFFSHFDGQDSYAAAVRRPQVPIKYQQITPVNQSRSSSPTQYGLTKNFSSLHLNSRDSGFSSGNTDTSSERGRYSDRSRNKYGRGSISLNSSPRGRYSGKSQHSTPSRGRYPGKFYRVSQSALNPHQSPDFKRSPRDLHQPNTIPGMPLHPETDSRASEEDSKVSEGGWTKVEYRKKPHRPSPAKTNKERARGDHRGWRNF"}, "LIMK2 (human)": {"molecular_target": "LIMK2 (human) (UniProt P53671)"}, "AKT1 (human)": {"molecular_target": "AKT1 (human) (UniProt P31749)"}, "ITK (human)": {"molecular_target": "ITK (human) (UniProt Q08881)"}, "MAPK1 (human)": {"molecular_target": "MAPK1 (human) (UniProt P28482)", "sequence (P28482 whole entry, looked up)": "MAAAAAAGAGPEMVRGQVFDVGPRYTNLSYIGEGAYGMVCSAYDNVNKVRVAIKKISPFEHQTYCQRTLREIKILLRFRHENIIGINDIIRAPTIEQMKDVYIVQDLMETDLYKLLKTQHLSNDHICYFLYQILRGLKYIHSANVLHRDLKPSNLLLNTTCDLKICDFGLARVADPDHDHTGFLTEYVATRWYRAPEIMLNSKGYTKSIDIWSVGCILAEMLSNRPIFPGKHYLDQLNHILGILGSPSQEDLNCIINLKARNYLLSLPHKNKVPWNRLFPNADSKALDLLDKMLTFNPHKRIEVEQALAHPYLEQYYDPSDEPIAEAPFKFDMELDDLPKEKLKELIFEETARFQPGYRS"}, "TAOK3 (human)": {"molecular_target": "TAOK3 (human) (UniProt Q9H2K8)"}, "[1]": {"molecular_target": "JAK2 JH1 catalytic (human) (UniProt O60674)"}, "PRKAA2 (human)": {"molecular_target": "PRKAA2 (human) (UniProt P54646)"}, "FLT1 (human)": {"molecular_target": "FLT1 (human) (UniProt P17948)"}, "[2]": {"tested_on": "EGFR (human), P00533 [752-759 del]"}, "MARK3 (human)": {"molecular_target": "MARK3 (human) (UniProt P27448)"}, "CSF1R (human)": {"molecular_target": "CSF1R (human) (UniProt P07333)"}, "EPHA3 (human)": {"molecular_target": "EPHA3 (human) (UniProt P29320)"}, "PIP5K1C (human)": {"molecular_target": "PIP5K1C (human) (UniProt O60331)"}, "STK10 (human)": {"molecular_target": "STK10 (human) (UniProt O94804)"}, "[3]": {"molecular_target": "JAK1 JH2 pseudokinase (human) (UniProt P23458)"}, "MKNK2 (human)": {"molecular_target": "MKNK2 (human) (UniProt Q9HBH9)"}, "TAOK1 (human)": {"molecular_target": "TAOK1 (human) (UniProt Q7L7X3)", "sequence (Q7L7X3 whole entry, looked up)": "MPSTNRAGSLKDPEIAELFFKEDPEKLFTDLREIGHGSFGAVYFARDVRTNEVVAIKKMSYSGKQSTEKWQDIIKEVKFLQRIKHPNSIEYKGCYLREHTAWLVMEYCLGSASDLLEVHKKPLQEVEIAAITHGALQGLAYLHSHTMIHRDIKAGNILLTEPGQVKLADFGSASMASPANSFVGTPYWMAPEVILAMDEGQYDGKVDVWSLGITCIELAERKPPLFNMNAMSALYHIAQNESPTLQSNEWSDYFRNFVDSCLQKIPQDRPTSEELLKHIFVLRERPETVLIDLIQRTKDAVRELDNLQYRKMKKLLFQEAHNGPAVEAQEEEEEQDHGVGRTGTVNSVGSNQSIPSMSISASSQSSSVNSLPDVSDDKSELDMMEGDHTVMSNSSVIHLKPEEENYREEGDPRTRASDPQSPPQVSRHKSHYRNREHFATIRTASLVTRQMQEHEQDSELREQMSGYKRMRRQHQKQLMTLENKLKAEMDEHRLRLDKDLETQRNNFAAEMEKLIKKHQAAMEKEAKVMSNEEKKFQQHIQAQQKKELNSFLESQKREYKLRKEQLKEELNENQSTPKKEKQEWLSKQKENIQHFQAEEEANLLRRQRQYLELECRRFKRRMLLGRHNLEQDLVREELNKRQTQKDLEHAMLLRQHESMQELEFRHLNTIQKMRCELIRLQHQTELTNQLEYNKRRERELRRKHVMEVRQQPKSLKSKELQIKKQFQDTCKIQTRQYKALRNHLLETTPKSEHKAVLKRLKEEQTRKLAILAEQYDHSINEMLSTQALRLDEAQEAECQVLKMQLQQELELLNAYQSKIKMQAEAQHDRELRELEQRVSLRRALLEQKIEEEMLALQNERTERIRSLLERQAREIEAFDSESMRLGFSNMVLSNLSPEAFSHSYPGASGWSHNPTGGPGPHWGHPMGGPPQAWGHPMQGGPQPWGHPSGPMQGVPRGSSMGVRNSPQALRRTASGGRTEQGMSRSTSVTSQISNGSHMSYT"}, "DDR2 (human)": {"molecular_target": "DDR2 (human) (UniProt Q16832)"}, "EPHB3 (human)": {"molecular_target": "EPHB3 (human) (UniProt P54753)", "sequence (P54753 whole entry, looked up)": "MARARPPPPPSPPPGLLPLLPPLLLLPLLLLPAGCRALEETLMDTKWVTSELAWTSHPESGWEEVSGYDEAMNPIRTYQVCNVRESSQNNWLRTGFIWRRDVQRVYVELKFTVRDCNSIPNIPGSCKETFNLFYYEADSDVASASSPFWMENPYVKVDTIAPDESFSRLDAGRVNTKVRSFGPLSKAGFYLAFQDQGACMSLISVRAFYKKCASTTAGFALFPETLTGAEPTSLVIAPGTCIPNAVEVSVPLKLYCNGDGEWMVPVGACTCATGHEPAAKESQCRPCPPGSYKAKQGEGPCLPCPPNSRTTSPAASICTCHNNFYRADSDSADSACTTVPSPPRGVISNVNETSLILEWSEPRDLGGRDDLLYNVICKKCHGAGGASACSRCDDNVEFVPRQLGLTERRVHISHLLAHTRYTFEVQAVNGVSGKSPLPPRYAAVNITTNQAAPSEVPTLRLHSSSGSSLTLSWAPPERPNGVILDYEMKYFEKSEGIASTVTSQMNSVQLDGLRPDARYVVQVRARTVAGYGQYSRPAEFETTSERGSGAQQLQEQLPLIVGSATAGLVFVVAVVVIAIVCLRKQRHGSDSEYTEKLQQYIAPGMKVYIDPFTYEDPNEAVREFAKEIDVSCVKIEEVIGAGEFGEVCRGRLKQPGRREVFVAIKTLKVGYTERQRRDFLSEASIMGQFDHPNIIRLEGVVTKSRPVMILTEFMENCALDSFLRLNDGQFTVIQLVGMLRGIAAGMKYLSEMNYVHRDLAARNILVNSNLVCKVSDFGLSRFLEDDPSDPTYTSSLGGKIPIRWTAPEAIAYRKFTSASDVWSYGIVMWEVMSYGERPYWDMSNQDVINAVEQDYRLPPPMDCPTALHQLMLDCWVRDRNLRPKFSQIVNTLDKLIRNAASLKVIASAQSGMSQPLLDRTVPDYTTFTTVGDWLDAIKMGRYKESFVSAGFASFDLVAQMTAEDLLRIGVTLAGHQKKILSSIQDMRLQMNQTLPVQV"}, "MAP2K2 (human)": {"molecular_target": "MAP2K2 (human) (UniProt P36507)", "sequence (P36507 whole entry, looked up)": "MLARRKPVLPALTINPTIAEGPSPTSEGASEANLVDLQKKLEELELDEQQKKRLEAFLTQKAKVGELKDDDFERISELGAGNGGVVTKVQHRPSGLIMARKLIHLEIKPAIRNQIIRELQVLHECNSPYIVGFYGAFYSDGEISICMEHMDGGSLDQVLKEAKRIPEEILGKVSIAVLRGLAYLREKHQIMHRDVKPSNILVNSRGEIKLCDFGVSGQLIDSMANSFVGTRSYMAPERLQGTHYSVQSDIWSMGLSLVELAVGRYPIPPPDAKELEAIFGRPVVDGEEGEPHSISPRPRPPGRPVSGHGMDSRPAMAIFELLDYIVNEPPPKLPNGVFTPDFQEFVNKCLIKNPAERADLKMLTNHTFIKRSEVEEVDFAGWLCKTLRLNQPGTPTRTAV"}, "[4]": {"molecular_target": "JAK3 JH1 catalytic (human) (UniProt P52333)"}, "PRKACB (human)": {"molecular_target": "PRKACB (human) (UniProt P22694)"}, "TGFBR1 (human)": {"molecular_target": "TGFBR1 (human) (UniProt P36897)"}, "PRKD1 (human)": {"molecular_target": "PRKD1 (human) (UniProt Q15139)"}, "[5]": {"tested_on": "FLT3 (human), P36888 [D835H]"}, "[6]": {"tested_on": "EGFR (human), P00533 [747-751 del / S ins]"}, "MAST1 (human)": {"molecular_target": "MAST1 (human) (UniProt Q9Y2H9)"}, "MAP4K3 (human)": {"molecular_target": "MAP4K3 (human) (UniProt Q8IVH8)", "sequence (Q8IVH8 whole entry, looked up)": "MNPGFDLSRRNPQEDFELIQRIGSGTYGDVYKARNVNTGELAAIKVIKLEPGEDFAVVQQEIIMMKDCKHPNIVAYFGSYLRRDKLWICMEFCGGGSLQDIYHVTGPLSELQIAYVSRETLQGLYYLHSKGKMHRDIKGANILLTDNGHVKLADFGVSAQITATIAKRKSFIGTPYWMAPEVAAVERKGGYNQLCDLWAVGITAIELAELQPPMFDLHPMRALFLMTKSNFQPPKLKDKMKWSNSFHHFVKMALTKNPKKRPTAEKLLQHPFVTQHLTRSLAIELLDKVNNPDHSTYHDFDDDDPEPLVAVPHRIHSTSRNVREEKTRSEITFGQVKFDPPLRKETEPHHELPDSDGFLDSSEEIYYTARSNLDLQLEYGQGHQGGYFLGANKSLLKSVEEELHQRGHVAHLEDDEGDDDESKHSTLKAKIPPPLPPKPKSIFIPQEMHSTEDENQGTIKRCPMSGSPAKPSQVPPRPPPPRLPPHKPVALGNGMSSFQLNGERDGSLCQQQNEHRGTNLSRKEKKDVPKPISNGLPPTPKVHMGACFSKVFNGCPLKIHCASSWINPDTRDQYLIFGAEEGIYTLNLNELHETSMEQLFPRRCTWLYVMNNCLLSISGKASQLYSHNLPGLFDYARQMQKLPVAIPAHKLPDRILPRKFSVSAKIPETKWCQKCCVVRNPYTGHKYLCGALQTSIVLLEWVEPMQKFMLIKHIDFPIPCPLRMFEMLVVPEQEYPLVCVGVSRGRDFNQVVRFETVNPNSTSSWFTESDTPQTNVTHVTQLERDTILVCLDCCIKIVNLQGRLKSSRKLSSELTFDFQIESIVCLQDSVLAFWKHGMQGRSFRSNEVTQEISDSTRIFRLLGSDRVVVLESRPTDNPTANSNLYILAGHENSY"}, "MAP4K5 (human)": {"molecular_target": "MAP4K5 (human) (UniProt Q9Y4K4)"}, "IKBKE (human)": {"molecular_target": "IKBKE (human) (UniProt Q14164)"}, "TXK (human)": {"molecular_target": "TXK (human) (UniProt P42681)"}, "TRPM6 (human)": {"molecular_target": "TRPM6 (human) (UniProt Q9BX84)"}, "MYLK2 (human)": {"molecular_target": "MYLK2 (human) (UniProt Q9H1R3)"}, "RPS6KA4 KD1 (human)": {"molecular_target": "RPS6KA4 KD1 (human) (UniProt O75676)"}, "WEE2 (human)": {"molecular_target": "WEE2 (human) (UniProt P0C1S8)"}, "SRC (human)": {"molecular_target": "SRC (human) (UniProt P12931)"}, "CAMK1G (human)": {"molecular_target": "CAMK1G (human) (UniProt Q96NX5)"}, "EPHB6 (human)": {"molecular_target": "EPHB6 (human) (UniProt O15197)"}, "PIM3 (human)": {"molecular_target": "PIM3 (human) (UniProt Q86V86)"}}}
{"compound": "NC(=O)Nc1cc(-c2cccc(F)c2)sc1C(=O)N[C@@H]1CCCNC1", "values": [{"measurement": "kinase still bound, per cent of control", "setting": "MLTK (human)", "value": 40, "unit": "%"}, {"measurement": "kinase still bound, per cent of control", "setting": "LIMK2 (human)", "value": 88, "unit": "%"}, {"measurement": "kinase still bound, per cent of control", "setting": "AKT1 (human)", "value": 3.2, "unit": "%"}, {"measurement": "kinase still bound, per cent of control", "setting": "ITK (human)", "value": 0.55, "unit": "%"}, {"measurement": "kinase still bound, per cent of control", "setting": "MAPK1 (human)", "value": 65, "unit": "%"}, {"measurement": "kinase still bound, per cent of control", "setting": "TAOK3 (human)", "value": 2.9, "unit": "%"}, {"measurement": "kinase still bound, per cent of control", "setting": "[1]", "value": 0, "unit": "%"}, {"measurement": "kinase still bound, per cent of control", "setting": "PRKAA2 (human)", "value": 0.35, "unit": "%"}, {"measurement": "kinase still bound, per cent of control", "setting": "FLT1 (human)", "value": 0.1, "unit": "%"}, {"measurement": "kinase still bound, per cent of control", "setting": "[2]", "value": 2.4, "unit": "%"}, {"measurement": "kinase still bound, per cent of control", "setting": "MARK3 (human)", "value": 0.85, "unit": "%"}, {"measurement": "kinase still bound, per cent of control", "setting": "CSF1R (human)", "value": 0, "unit": "%"}, {"measurement": "kinase still bound, per cent of control", "setting": "EPHA3 (human)", "value": 0.2, "unit": "%"}, {"measurement": "kinase still bound, per cent of control", "setting": "PIP5K1C (human)", "value": 27, "unit": "%"}, {"measurement": "kinase still bound, per cent of control", "setting": "STK10 (human)", "value": 0, "unit": "%"}, {"measurement": "kinase still bound, per cent of control", "setting": "[3]", "value": 2.5, "unit": "%"}, {"measurement": "kinase still bound, per cent of control", "setting": "MKNK2 (human)", "value": 0, "unit": "%"}, {"measurement": "kinase still bound, per cent of control", "setting": "TAOK1 (human)", "value": 4.8, "unit": "%"}, {"measurement": "kinase still bound, per cent of control", "setting": "DDR2 (human)", "value": 0, "unit": "%"}, {"measurement": "kinase still bound, per cent of control", "setting": "EPHB3 (human)", "value": 95, "unit": "%"}, {"measurement": "kinase still bound, per cent of control", "setting": "MAP2K2 (human)", "value": 0, "unit": "%"}, {"measurement": "kinase still bound, per cent of control", "setting": "[4]", "value": 0, "unit": "%"}, {"measurement": "kinase still bound, per cent of control", "setting": "PRKACB (human)", "value": 1.8, "unit": "%"}, {"measurement": "kinase still bound, per cent of control", "setting": "TGFBR1 (human)", "value": 47, "unit": "%"}, {"measurement": "kinase still bound, per cent of control", "setting": "PRKD1 (human)", "value": 0.3, "unit": "%"}, {"measurement": "kinase still bound, per cent of control", "setting": "[5]", "value": 0, "unit": "%"}, {"measurement": "kinase still bound, per cent of control", "setting": "[6]", "value": 2.4, "unit": "%"}, {"measurement": "kinase still bound, per cent of control", "setting": "MAST1 (human)", "value": 4.1, "unit": "%"}, {"measurement": "kinase still bound, per cent of control", "setting": "MAP4K3 (human)", "value": 0.35, "unit": "%"}, {"measurement": "kinase still bound, per cent of control", "setting": "MAP4K5 (human)", "value": 0.4, "unit": "%"}, {"measurement": "kinase still bound, per cent of control", "setting": "IKBKE (human)", "value": 3.6, "unit": "%"}, {"measurement": "kinase still bound, per cent of control", "setting": "TXK (human)", "value": 0.1, "unit": "%"}, {"measurement": "kinase still bound, per cent of control", "setting": "TRPM6 (human)", "value": 74, "unit": "%"}, {"measurement": "kinase still bound, per cent of control", "setting": "MYLK2 (human)", "value": 67, "unit": "%"}, {"measurement": "kinase still bound, per cent of control", "setting": "RPS6KA4 KD1 (human)", "value": 0.2, "unit": "%"}, {"measurement": "kinase still bound, per cent of control", "setting": "WEE2 (human)", "value": 91, "unit": "%"}, {"measurement": "kinase still bound, per cent of control", "setting": "SRC (human)", "value": 0.05, "unit": "%"}, {"measurement": "kinase still bound, per cent of control", "setting": "CAMK1G (human)", "value": 6.2, "unit": "%"}, {"measurement": "kinase still bound, per cent of control", "setting": "EPHB6 (human)", "value": 50, "unit": "%"}, {"measurement": "kinase still bound, per cent of control", "setting": "PIM3 (human)", "value": 15, "unit": "%"}]}
